Experimental data reported in PubChem BioAssay AID2060885 (Molecular Pharmacology Branch, DTP, NCI, 2025).

Test system: NCI-H23 complex spheroids with HUVEC/MSC, viability
Assay: Anticancer human tumor NCI-H23 cell line growth inhibition [RAS];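 note: spheroids exposed to compound for 7 days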;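 for viability, T/C: 100% = DMSO vehicle control viability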
Details: for IC50: curve of first compound; for viability, T/C: stronger effect = lower value
In short: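 Multi-cell-type spheroids: tumor cells plus HUVEC endothelial cells and mesenchymal stem cells. RAS-pathway inhibitors were combined with targeted agents, each dosed in half-log steps down from clinical Cmax, or from 10 microM when Cmax was unknown.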

[1] = second compound 0.00316 µM, first compound 0.0316 µM
[2] = second compound 0.00316 µM, first compound 0.1 µM
[3] = second compound 0.00316 µM, first compound 0.316 µM
[4] = second compound 0.00316 µM, first compound 1 µM
[5] = second compound 0.01 µM, first compound 0.0316 µM
[6] = second compound 0.01 µM, first compound 0.1 µM
[7] = second compound 0.01 µM, first compound 0.316 µM
[8] = second compound 0.01 µM, first compound 1 µM
[9] = second compound 0.0316 µM, first compound 0.0316 µM
[10] = second compound 0.0316 µM, first compound 0.1 µM
[11] = second compound 0.0316 µM, first compound 0.316 µM
[12] = second compound 0.0316 µM, first compound 1 µM
[13] = second compound 0.1 µM, first compound 0.0316 µM
[14] = second compound 0.1 µM, first compound 0.1 µM
[15] = second compound 0.1 µM, first compound 0.316 µM
[16] = second compound 0.1 µM, first compound 1 µM
[17] = second compound 0.316 µM, first compound 0.0316 µM
[18] = second compound 0.316 µM, first compound 0.1 µM
[19] = second compound 0.316 µM, first compound 0.316 µM
[20] = second compound 0.316 µM, first compound 1 µM
[21] = second compound 1 µM, first compound 0.0316 µM
[22] = second compound 1 µM, first compound 0.1 µM
[23] = second compound 1 µM, first compound 0.316 µM
[24] = second compound 1 µM, first compound 1 µM
[25] = second compound 0.00316 µM, first compound 0.000949 µM
[26] = second compound 0.00316 µM, first compound 0.003 µM
[27] = second compound 0.00316 µM, first compound 0.00949 µM
[28] = second compound 0.00316 µM, first compound 0.03 µM
[29] = second compound 0.00316 µM, first compound 0.0949 µM
[30] = second compound 0.00316 µM, first compound 0.3 µM
[31] = second compound 0.01 µM, first compound 0.000949 µM
[32] = second compound 0.01 µM, first compound 0.003 µM
[33] = second compound 0.01 µM, first compound 0.00949 µM
[34] = second compound 0.01 µM, first compound 0.03 µM
[35] = second compound 0.01 µM, first compound 0.0949 µM
[36] = second compound 0.01 µM, first compound 0.3 µM
[37] = second compound 0.0316 µM, first compound 0.000949 µM
[38] = second compound 0.0316 µM, first compound 0.003 µM
[39] = second compound 0.0316 µM, first compound 0.00949 µM
[40] = second compound 0.0316 µM, first compound 0.03 µM
[41] = second compound 0.0316 µM, first compound 0.0949 µM
[42] = second compound 0.0316 µM, first compound 0.3 µM
[43] = second compound 0.1 µM, first compound 0.000949 µM
[44] = second compound 0.1 µM, first compound 0.003 µM
[45] = second compound 0.1 µM, first compound 0.00949 µM
[46] = second compound 0.1 µM, first compound 0.03 µM
[47] = second compound 0.1 µM, first compound 0.0949 µM
[48] = second compound 0.1 µM, first compound 0.3 µM
[49] = second compound 0.316 µM, first compound 0.000949 µM
[50] = second compound 0.316 µM, first compound 0.003 µM
[51] = second compound 0.316 µM, first compound 0.00949 µM
[52] = second compound 0.316 µM, first compound 0.03 µM
[53] = second compound 0.316 µM, first compound 0.0949 µM
[54] = second compound 0.316 µM, first compound 0.3 µM
[55] = second compound 1 µM, first compound 0.000949 µM
[56] = second compound 1 µM, first compound 0.003 µM
[57] = second compound 1 µM, first compound 0.00949 µM
[58] = second compound 1 µM, first compound 0.03 µM
[59] = second compound 1 µM, first compound 0.0949 µM
[60] = second compound 1 µM, first compound 0.3 µM

## CC(=O)OC12COC1CC(O)C1(C)C(=O)C(O)C3=C(C)C(OC(=O)C(O)C(NC(=O)OC(C)(C)C)c4ccccc4)CC(O)(C(OC(=O)c4ccccc4)C21)C3(C)C (stereo not drawn) + C=CC(=O)N1CCN(c2nc(OCC3CCCN3C)nc3c(F)c(-c4nc(N)cc(C)c4C(F)(F)F)c(Cl)cc23)C(C)C1
Second compound 0.00316 µM
  IC50: < 31.6 nM
Second compound 0.01 µM
  IC50: < 31.6 nM
Second compound 0.0316 µM
  IC50: < 31.6 nM
Second compound 0.1 µM
  IC50: < 31.6 nM
Second compound 0.316 µM
  IC50: < 31.6 nM
Second compound 1 µM
  IC50: < 31.6 nM
[1]
  viability, T/C: 12.9%
[2]
  viability, T/C: 17%
[3]
  viability, T/C: 17.9%
[4]
  viability, T/C: 16.9%
Second compound 0.00316 µM, first compound 3.16 µM
  viability, T/C: 25.1%
Second compound 0.00316 µM, first compound 10 µM
  viability, T/C: 41.9%
[5]
  viability, T/C: 14.2%
[6]
  viability, T/C: 17.6%
[7]
  viability, T/C: 13.1%
[8]
  viability, T/C: 18.7%
Second compound 0.01 µM, first compound 3.16 µM
  viability, T/C: 19.1%
Second compound 0.01 µM, first compound 10 µM
  viability, T/C: 28.7%
[9]
  viability, T/C: 15.5%
[10]
  viability, T/C: 17.1%
[11]
  viability, T/C: 15.6%
[12]
  viability, T/C: 15.9%
Second compound 0.0316 µM, first compound 3.16 µM
  viability, T/C: 23.9%
Second compound 0.0316 µM, first compound 10 µM
  viability, T/C: 26.2%
[13]
  viability, T/C: 12.4%
[14]
  viability, T/C: 15.2%
[15]
  viability, T/C: 11.8%
[16]
  viability, T/C: 14.9%
Second compound 0.1 µM, first compound 3.16 µM
  viability, T/C: 22.8%
Second compound 0.1 µM, first compound 10 µM
  viability, T/C: 22.1%
[17]
  viability, T/C: 11.1%
[18]
  viability, T/C: 13.9%
[19]
  viability, T/C: 14.3%
[20]
  viability, T/C: 16.3%
Second compound 0.316 µM, first compound 3.16 µM
  viability, T/C: 18.9%
Second compound 0.316 µM, first compound 10 µM
  viability, T/C: 26.8%
[21]
  viability, T/C: 11.8%
[22]
  viability, T/C: 14.7%
[23]
  viability, T/C: 14.4%
[24]
  viability, T/C: 15.4%
Second compound 1 µM, first compound 3.16 µM
  viability, T/C: 21.5%
Second compound 1 µM, first compound 10 µM
  viability, T/C: 20.9%

## CC1(C)CCC(Nc2ncc(C(F)(F)F)c(-c3c[nH]c4c(P(C)(C)=O)c(C#N)ccc34)n2)CN1 (stereo not drawn) + C=CC(=O)N1CCN(c2nc(OCC3CCCN3C)nc3c(F)c(-c4nc(N)cc(C)c4C(F)(F)F)c(Cl)cc23)C(C)C1
Second compound 0.00316 µM
  IC50: 1.11 nM
Second compound 0.01 µM
  IC50: < 0.949 nM
Second compound 0.0316 µM
  IC50: < 0.949 nM
Second compound 0.1 µM
  IC50: < 0.949 nM
Second compound 0.316 µM
  IC50: < 0.949 nM
Second compound 1 µM
  IC50: < 0.949 nM
[25]
  viability, T/C: 50.9%
[26]
  viability, T/C: 41.2%
[27]
  viability, T/C: 37%
[28]
  viability, T/C: 25.2%
[29]
  viability, T/C: 26.9%
[30]
  viability, T/C: 27.6%
[31]
  viability, T/C: 36.5%
[32]
  viability, T/C: 38.3%
[33]
  viability, T/C: 24.9%
[34]
  viability, T/C: 24%
[35]
  viability, T/C: 22.5%
[36]
  viability, T/C: 20%
[37]
  viability, T/C: 33.6%
[38]
  viability, T/C: 27.2%
[39]
  viability, T/C: 23.2%
[40]
  viability, T/C: 21%
[41]
  viability, T/C: 21.2%
[42]
  viability, T/C: 18.2%
[43]
  viability, T/C: 29.8%
[44]
  viability, T/C: 28.9%
[45]
  viability, T/C: 23.1%
[46]
  viability, T/C: 21.3%
[47]
  viability, T/C: 19.2%
[48]
  viability, T/C: 19.4%
[49]
  viability, T/C: 30.1%
[50]
  viability, T/C: 30.4%
[51]
  viability, T/C: 24.1%
[52]
  viability, T/C: 20.7%
[53]
  viability, T/C: 20.6%
[54]
  viability, T/C: 19.5%
[55]
  viability, T/C: 29.3%
[56]
  viability, T/C: 28.7%
[57]
  viability, T/C: 27.5%
[58]
  viability, T/C: 22.4%
[59]
  viability, T/C: 23.6%
[60]
  viability, T/C: 20.5%

## CCc1c2c(nc3ccc(O)cc13)-c1cc3c(c(=O)n1C2)COC(=O)[C@]3(O)CC + C=CC(=O)N1CCN(c2nc(OCC3CCCN3C)nc3c(F)c(-c4nc(N)cc(C)c4C(F)(F)F)c(Cl)cc23)C(C)C1
Second compound 0.00316 µM
  IC50: < 0.949 nM
Second compound 0.01 µM
  IC50: < 0.949 nM
Second compound 0.0316 µM
  IC50: < 0.949 nM
Second compound 0.1 µM
  IC50: < 0.949 nM
Second compound 0.316 µM
  IC50: < 0.949 nM
Second compound 1 µM
  IC50: < 0.949 nM
[25]
  viability, T/C: 41.6%
[26]
  viability, T/C: 33.6%
[27]
  viability, T/C: 11.7%
[28]
  viability, T/C: 3.8%
[29]
  viability, T/C: 2.71%
[30]
  viability, T/C: 2.26%
[31]
  viability, T/C: 40.6%
[32]
  viability, T/C: 26%
[33]
  viability, T/C: 8.37%
[34]
  viability, T/C: 3.98%
[35]
  viability, T/C: 2.14%
[36]
  viability, T/C: 1.54%
[37]
  viability, T/C: 33.3%
[38]
  viability, T/C: 22.2%
[39]
  viability, T/C: 9.5%
[40]
  viability, T/C: 4.43%
[41]
  viability, T/C: 2.52%
[42]
  viability, T/C: 1.84%
[43]
  viability, T/C: 32.5%
[44]
  viability, T/C: 19.6%
[45]
  viability, T/C: 6.47%
[46]
  viability, T/C: 3.28%
[47]
  viability, T/C: 2.14%
[48]
  viability, T/C: 2.49%
[49]
  viability, T/C: 27.8%
[50]
  viability, T/C: 17.5%
[51]
  viability, T/C: 7.44%
[52]
  viability, T/C: 3.62%
[53]
  viability, T/C: 2.47%
[54]
  viability, T/C: 3.05%
[55]
  viability, T/C: 25.9%
[56]
  viability, T/C: 21.2%
[57]
  viability, T/C: 8.12%
[58]
  viability, T/C: 4.94%
[59]
  viability, T/C: 2.44%
[60]
  viability, T/C: 2.51%

## Nc1ccn(C2OC(CO)C(O)C2(F)F)c(=O)n1 (stereo not drawn) + C=CC(=O)N1CCN(c2nc(OCC3CCCN3C)nc3c(F)c(-c4nc(N)cc(C)c4C(F)(F)F)c(Cl)cc23)C(C)C1
Second compound 0.00316 µM
  IC50: < 3.16 nM
Second compound 0.01 µM
  IC50: < 3.16 nM
Second compound 0.0316 µM
  IC50: < 3.16 nM
Second compound 0.1 µM
  IC50: < 3.16 nM
Second compound 0.316 µM
  IC50: < 3.16 nM
Second compound 1 µM
  IC50: < 3.16 nM
Second compound 0.00316 µM, first compound 0.00316 µM
  viability, T/C: 29.9%
Second compound 0.00316 µM, first compound 0.01 µM
  viability, T/C: 4.17%
[1]
  viability, T/C: 1.98%
[2]
  viability, T/C: 2.04%
[3]
  viability, T/C: 2.83%
[4]
  viability, T/C: 2.41%
Second compound 0.01 µM, first compound 0.00316 µM
  viability, T/C: 34.3%
Second compound 0.01 µM, first compound 0.01 µM
  viability, T/C: 3.54%
[5]
  viability, T/C: 2.75%
[6]
  viability, T/C: 2.39%
[7]
  viability, T/C: 2.2%
[8]
  viability, T/C: 2.54%
Second compound 0.0316 µM, first compound 0.00316 µM
  viability, T/C: 24.9%
Second compound 0.0316 µM, first compound 0.01 µM
  viability, T/C: 3.04%
[9]
  viability, T/C: 2.2%
[10]
  viability, T/C: 2.3%
[11]
  viability, T/C: 2.25%
[12]
  viability, T/C: 3.18%
Second compound 0.1 µM, first compound 0.00316 µM
  viability, T/C: 20.2%
Second compound 0.1 µM, first compound 0.01 µM
  viability, T/C: 2.99%
[13]
  viability, T/C: 2.63%
[14]
  viability, T/C: 1.97%
[15]
  viability, T/C: 2.37%
[16]
  viability, T/C: 2.09%
Second compound 0.316 µM, first compound 0.00316 µM
  viability, T/C: 24.8%
Second compound 0.316 µM, first compound 0.01 µM
  viability, T/C: 3.77%
[17]
  viability, T/C: 2.05%
[18]
  viability, T/C: 1.47%
[19]
  viability, T/C: 2.4%
[20]
  viability, T/C: 2.12%
Second compound 1 µM, first compound 0.00316 µM
  viability, T/C: 21.4%
Second compound 1 µM, first compound 0.01 µM
  viability, T/C: 4.48%
[21]
  viability, T/C: 3.25%
[22]
  viability, T/C: 2.34%
[23]
  viability, T/C: 2.71%
[24]
  viability, T/C: 2.67%
